# Source: ChEMBL document CHEMBL1201862, “PubChem BioAssay data set” (2004)
# Counter-ions that a name gives are not always drawn. Calls of active or inactive are those of the source.
# Tests used:
# [1] = biological target: T1, Endoribonuclease toxin MazF (Escherichia coli K-12, UniProt P0AE70); experiment: fluorescent RNA oligo signal without MazF, dose response, counter-screen for MazEF activator project, biochemical, fluorescence, single-stranded RNase substrate (AID 588502); type: functional
# T1 sequence (P0AE70 whole entry): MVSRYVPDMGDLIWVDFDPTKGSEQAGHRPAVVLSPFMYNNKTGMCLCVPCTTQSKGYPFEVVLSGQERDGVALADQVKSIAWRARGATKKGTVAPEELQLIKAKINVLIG
# [2] = biological target: T1, Endoribonuclease toxin MazF; experiment: MazF toxin RNase activators, dose response, biochemical, fluorescence, single-stranded RNA substrate, uHTS hits (AID 588481); type: functional
# [3] = HEp-2 cell cytotoxicity, dose response, cytotoxicity control for RSV inhibitor project, HTS (AID 2410); type: functional; conditions: human respiratory syncytial virus
# [4] = biological target: Cytochrome P450 3A4 (Homo sapiens, UniProt P08684);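 further: CYP3A4 tested as one member of a cytochrome P450 panel screen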
# Sequence of Cytochrome P450 3A4 (P08684 whole entry): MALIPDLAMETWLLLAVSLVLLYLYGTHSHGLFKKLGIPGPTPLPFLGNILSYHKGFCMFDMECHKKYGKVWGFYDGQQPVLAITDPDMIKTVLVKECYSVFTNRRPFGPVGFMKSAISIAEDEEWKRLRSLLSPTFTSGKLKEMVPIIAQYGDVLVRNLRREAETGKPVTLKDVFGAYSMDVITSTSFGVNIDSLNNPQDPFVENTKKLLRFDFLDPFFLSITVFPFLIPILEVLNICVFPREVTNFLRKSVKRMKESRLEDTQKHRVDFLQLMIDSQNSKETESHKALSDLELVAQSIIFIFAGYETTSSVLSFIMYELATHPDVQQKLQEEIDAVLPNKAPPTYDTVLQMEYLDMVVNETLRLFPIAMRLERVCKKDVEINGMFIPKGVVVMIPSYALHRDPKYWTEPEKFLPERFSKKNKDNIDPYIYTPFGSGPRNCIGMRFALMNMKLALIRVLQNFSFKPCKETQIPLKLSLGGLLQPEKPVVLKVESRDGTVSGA
# [5] = cells
# [6] = system: Vero; experiment: cells; type: functional, cell-based; conditions: Chlorocebus sabaeus
# [7] = system: Vero; experiment: cells; type: functional; conditions: Chlorocebus sabaeus
# [8] = system: Streptococcus; experiment: Group A Streptococcus viability loss, dose response, counter-screen for streptokinase expression inhibitor project, luminescence, BacTiterGlo (AID 1915); type: functional, organism-based;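 further: potency for reduction of bacterial viability or growth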
# [9] = system: Streptococcus sp. 'group A'; experiment: growth inhibition of control SK(-) GAS strain, dose response, counter-screen for streptokinase expression inhibitor project, luminescence, kanamycin, BacTiterGlo, confirmation (AID 1900); type: functional, organism-based
# [10] = biological target: Beta-galactosidase (Escherichia coli, UniProt Q8VNN2); experiment: PubChem AID 485352; type: functional
# Sequence of Beta-galactosidase (Q8VNN2 whole entry): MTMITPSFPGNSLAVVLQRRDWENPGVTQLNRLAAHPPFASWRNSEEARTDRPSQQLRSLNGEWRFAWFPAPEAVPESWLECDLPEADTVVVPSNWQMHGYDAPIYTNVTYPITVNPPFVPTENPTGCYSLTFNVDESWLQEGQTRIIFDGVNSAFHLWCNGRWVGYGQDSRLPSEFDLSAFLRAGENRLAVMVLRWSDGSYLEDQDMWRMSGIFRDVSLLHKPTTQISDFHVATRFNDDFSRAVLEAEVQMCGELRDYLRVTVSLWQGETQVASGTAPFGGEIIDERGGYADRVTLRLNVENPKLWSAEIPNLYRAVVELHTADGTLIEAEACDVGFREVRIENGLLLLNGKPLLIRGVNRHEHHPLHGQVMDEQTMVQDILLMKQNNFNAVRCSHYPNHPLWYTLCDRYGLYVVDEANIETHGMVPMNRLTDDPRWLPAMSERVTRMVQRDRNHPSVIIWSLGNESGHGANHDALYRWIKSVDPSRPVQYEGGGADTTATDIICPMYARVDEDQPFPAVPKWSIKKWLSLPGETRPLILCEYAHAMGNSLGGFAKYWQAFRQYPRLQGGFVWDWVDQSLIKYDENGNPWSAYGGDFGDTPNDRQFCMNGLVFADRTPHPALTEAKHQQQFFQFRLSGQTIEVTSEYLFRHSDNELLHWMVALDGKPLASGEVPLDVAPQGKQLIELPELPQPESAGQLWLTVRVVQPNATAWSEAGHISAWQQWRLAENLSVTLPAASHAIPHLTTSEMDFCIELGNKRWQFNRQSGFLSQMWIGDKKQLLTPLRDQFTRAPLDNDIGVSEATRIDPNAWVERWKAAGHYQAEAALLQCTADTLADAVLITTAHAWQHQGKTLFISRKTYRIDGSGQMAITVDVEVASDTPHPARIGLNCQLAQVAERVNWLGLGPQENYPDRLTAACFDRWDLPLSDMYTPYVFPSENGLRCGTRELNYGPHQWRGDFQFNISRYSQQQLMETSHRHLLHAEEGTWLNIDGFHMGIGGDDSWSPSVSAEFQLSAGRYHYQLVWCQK
# [11] = biological target: T2, Type-1 angiotensin II receptor (Homo sapiens, UniProt P30556); experiment: AT1 receptor antagonists, dose response, selectivity assay for APJ receptor antagonist project, cell-based, uHTS hits (AID 463214); type: functional;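 further: antagonist potency against angiotensin II stimulated AT1 response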
# T2 sequence (P30556 whole entry): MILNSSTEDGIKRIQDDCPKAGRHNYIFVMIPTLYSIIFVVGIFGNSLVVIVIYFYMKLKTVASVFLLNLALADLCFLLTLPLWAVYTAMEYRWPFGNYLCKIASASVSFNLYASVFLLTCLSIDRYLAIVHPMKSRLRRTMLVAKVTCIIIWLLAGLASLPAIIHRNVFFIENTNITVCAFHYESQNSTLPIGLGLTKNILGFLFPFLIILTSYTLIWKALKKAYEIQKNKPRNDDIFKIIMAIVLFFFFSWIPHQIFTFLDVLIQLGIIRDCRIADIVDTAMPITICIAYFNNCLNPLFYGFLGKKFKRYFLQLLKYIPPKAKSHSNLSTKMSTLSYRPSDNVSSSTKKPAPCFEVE
# [12] = biological target: T3, Replicative DNA helicase DnaB (Mycobacterium tuberculosis, UniProt P9WMR3); experiment: DnaB intein splicing inhibitors, dose response, biochemical, cell-free fluorescence (AID 449749); type: functional
# T3 sequence (P9WMR3 whole entry): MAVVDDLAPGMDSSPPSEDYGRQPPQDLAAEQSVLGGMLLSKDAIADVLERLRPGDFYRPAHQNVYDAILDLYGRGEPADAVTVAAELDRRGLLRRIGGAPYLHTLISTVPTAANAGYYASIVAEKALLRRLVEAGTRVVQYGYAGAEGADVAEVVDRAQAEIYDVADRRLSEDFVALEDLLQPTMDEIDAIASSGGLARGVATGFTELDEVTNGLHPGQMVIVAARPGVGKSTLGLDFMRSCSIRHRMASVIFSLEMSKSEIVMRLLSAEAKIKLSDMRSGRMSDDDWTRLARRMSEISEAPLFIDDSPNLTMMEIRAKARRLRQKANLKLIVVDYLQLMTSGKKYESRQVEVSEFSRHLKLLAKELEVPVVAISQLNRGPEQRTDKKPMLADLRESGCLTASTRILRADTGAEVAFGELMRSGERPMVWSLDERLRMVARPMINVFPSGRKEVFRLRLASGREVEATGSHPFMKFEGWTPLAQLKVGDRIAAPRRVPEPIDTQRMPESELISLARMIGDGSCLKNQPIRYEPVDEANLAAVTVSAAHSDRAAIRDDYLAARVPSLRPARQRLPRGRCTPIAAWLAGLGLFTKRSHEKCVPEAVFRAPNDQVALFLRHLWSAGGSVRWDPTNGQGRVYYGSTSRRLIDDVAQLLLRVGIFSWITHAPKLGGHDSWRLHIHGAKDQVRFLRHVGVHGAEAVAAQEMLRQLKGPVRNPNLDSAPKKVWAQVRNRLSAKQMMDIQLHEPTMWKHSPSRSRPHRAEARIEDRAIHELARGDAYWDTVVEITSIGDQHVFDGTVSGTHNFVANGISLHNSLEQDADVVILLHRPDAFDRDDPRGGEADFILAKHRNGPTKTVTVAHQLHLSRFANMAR
# [13] = Luminescence Cell-Based Dose Response HTS to Identify Inhibitors of 5'UTR Stem-Loop Driven Prion Protein mRNA Translation in H4 Neuroglioblastoma Cells. [Related pubchem assays: 1827 (Project Summary), 1813 (Primary HTS)]; type: functional
# [14] = biological target: T4, Microphthalmia-associated transcription factor (Homo sapiens, UniProt O75030); experiment: TRPM1 promoter luciferase signal decrease, dose response, MITF inhibitor project, cell-based, SK-MEL-5, cherry-picked, set 3 (AID 493073); type: functional
# T4 sequence (O75030 whole entry): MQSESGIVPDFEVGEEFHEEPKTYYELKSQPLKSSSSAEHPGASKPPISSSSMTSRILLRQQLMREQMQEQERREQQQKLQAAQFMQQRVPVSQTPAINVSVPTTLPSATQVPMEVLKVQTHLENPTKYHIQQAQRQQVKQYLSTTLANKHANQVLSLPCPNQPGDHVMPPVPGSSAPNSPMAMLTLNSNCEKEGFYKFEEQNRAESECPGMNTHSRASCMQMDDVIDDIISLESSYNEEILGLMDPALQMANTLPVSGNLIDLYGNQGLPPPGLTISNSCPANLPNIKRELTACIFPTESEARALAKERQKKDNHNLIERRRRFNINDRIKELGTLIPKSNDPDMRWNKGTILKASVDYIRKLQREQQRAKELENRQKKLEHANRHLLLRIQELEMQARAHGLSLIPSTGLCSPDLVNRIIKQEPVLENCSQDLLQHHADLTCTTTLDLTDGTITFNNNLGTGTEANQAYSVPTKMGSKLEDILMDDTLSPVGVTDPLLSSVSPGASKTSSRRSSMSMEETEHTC
# [15] = inhibitors of SNCA 5'UTR-driven reporter translation, confirmation, H4 neuroglioma cells, luminescence (AID 1988); type: functional, cell-based
# [16] = inhibitors of firefly luciferase expression or activity, dose response, H4 neuroglioma cells, luminescence (AID 1990); type: functional, cell-based
# [17] = biological target: T5, Protein RecA (Mycobacterium tuberculosis, UniProt P9WHJ3); experiment: Fluorescence Cell-Free Homogeneous Dose Retest to Identify Inhibitors of RecA-Intein Splicing Activity. [Related pubchem assays (depositor defined):AID2097, AID2223, AID489010, AID492950]; type: functional
# T5 sequence (P9WHJ3 whole entry): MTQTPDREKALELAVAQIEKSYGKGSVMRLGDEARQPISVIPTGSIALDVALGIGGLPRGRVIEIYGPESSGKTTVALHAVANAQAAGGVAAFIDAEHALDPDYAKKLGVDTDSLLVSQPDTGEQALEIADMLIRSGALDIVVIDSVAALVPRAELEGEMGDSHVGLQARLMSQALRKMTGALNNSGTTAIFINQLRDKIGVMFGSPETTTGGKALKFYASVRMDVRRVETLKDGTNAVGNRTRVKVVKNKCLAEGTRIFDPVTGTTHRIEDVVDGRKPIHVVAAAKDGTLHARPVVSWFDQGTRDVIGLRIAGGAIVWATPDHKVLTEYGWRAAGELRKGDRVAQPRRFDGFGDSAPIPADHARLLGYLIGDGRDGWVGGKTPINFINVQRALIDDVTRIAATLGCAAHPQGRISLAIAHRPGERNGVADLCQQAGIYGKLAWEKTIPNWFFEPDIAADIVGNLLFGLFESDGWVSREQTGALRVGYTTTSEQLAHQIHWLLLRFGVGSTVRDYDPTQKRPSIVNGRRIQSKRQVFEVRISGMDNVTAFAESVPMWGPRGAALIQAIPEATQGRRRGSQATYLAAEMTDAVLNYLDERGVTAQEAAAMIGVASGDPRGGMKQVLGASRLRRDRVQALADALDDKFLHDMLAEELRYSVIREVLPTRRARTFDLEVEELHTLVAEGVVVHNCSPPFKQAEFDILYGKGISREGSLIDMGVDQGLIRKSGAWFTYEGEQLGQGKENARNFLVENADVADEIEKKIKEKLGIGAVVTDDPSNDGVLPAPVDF
# [18] = biological target: Phospholipase A2 (Homo sapiens, UniProt P04054); type: functional;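 further: confirmatory dose-response counterscreen on phospholipase A2, testing hits that came from an ultra-high-throughput screen for ATG4B inhibitors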
# Sequence of Phospholipase A2 (P04054 whole entry): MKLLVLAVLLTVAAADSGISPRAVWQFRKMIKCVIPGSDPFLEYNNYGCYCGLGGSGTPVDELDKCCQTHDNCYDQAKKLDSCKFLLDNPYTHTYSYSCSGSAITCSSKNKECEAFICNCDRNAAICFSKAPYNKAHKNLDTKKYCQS
# [19] = biological target: Genome polyprotein (dengue virus type 2, UniProt P29990); experiment: Dengue-2 NS5 methyltransferase inhibitors, primary screen, biochemical, confirmation dose response (AID 588689); type: functional
# Sequence of Genome polyprotein (P29990 2492-3391 limits assumed): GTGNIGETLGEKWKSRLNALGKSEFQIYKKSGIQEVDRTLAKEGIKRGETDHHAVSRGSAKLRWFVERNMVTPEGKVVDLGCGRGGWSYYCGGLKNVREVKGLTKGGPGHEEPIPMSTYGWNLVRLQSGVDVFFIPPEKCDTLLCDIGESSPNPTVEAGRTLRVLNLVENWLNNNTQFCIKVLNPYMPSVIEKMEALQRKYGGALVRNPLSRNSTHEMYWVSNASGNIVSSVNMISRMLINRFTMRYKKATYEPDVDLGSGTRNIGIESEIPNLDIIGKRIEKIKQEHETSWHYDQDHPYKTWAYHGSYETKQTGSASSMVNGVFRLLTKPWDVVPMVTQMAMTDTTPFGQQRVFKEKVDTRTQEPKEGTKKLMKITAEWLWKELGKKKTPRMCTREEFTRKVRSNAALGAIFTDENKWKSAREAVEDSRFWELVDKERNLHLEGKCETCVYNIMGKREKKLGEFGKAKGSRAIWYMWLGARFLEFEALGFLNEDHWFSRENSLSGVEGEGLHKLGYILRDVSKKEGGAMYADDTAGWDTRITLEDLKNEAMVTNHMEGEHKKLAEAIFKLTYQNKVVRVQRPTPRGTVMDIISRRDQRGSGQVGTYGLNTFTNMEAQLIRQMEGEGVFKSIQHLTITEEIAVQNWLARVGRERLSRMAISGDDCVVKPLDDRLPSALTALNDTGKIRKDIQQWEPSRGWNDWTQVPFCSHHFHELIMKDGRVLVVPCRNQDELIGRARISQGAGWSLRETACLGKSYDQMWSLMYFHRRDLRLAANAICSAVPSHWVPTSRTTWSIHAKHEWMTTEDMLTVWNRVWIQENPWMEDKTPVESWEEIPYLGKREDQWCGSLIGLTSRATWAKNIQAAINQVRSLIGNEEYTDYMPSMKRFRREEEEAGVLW
# [20] = system: Vero; experiment: Vero cell cytotoxicity, cytotoxicity control for flavivirus capping enzyme inhibitors (AID 588742); type: functional; conditions: Chlorocebus sabaeus
# [21] = biological target: T6, Cysteine protease ATG4B (Homo sapiens, UniProt Q9Y4P1); type: functional;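 further: Fluorescence-based dose-response confirmation assay measuring inhibition of ATG4B activity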
# T6 sequence (Q9Y4P1 whole entry): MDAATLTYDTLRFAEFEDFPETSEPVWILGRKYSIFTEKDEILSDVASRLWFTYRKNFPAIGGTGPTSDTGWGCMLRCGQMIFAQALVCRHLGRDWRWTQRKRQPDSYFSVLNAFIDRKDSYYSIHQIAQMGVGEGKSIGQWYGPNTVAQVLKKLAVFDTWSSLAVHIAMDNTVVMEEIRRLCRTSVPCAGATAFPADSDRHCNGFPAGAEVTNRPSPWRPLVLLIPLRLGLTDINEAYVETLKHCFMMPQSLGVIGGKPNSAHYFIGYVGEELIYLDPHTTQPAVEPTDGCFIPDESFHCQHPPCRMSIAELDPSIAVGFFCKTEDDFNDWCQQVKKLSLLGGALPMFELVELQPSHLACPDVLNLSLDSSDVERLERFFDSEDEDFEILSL
# [22] = biological target: T7, Ubiquitin-conjugating enzyme E2 N (Homo sapiens, UniProt P61088); type: functional;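 further: Dose-response confirmation in a TR-FRET assay detecting UBC13-driven polyubiquitin chain formation, inhibition measured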
# T7 sequence (P61088 whole entry): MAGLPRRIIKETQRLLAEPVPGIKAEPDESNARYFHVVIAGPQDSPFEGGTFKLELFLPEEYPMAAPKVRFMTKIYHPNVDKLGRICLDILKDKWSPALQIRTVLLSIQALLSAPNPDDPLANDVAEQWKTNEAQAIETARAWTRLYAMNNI
# [23] = biological target: Voltage-gated inwardly rectifying potassium channel KCNH2 (Homo sapiens, UniProt Q12809); conditions: Potency;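 further: confirmatory quantitative high-throughput screen measuring inhibition of hERG channel activity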
# Sequence of Voltage-gated inwardly rectifying potassium channel KCNH2 (Q12809 whole entry): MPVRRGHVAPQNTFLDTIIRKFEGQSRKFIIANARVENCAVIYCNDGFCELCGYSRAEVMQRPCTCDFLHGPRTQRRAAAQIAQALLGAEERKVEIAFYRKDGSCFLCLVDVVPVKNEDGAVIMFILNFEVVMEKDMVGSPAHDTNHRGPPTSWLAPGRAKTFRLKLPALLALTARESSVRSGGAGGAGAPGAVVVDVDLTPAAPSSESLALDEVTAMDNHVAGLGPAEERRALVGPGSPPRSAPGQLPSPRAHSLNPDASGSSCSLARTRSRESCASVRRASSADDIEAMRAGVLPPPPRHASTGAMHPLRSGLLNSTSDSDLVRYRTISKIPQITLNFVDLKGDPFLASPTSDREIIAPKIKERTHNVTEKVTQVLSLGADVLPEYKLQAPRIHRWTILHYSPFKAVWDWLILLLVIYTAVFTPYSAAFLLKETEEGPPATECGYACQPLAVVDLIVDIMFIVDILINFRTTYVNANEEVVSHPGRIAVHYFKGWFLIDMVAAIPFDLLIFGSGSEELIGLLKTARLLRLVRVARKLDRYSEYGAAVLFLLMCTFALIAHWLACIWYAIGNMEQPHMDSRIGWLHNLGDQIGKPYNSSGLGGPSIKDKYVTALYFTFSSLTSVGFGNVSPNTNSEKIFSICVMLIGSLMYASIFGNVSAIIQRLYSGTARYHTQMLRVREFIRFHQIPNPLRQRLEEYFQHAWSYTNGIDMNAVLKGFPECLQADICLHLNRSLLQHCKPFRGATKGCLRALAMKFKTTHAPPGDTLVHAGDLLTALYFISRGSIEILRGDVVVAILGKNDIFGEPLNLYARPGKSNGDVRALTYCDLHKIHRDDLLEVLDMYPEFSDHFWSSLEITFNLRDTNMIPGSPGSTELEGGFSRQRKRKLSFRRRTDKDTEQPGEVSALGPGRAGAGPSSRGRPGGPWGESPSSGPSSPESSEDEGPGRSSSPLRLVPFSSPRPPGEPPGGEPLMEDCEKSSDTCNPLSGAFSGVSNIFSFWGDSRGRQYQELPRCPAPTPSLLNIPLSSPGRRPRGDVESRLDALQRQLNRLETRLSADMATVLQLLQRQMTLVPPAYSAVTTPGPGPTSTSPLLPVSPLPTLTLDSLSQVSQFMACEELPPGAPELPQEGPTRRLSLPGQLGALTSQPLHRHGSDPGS
smiles,measurement,setting,value
CNc1ccc(/C=C(\C#N)C(=O)Nc2ccccn2)cc1[N+](=O)[O-],EC50,[1],39.2 µM (inactive)
same,EC50,[2],> 99 µM (inactive)
COC(=O)CSc1nc2cc(OC)ccc2cc1C#N,EC50,[1],48.4 µM (inactive)
same,EC50,[2],> 99 µM (inactive)
CCOC(=O)c1c(-c2cccc(C)c2)csc1NC(=O)c1c(-c2ccccc2)noc1C,CC50,[3],5.17 µM (active)
same,AC50,[4],5.62 µM (inconclusive)
same,IC50,[5],9.89 µM (active)
same,IC50,[6],1.43 µM (active)
same,CC50,[7],> 25 µM (active)
O=C(CN1c2ccccc2Sc2ccccc21)NNC(=S)Nc1ccc(Cl)cc1,EC50,[8],3.6 µM (active)
same,EC50,[9],3.35 µM (active)
same,EC50,[10],> 40 µM (inactive)
same,IC50,[11],> 40 µM (not active)
COc1ccc(/C=C/C(=O)NC(=S)NNC(=O)c2c(-c3ccccc3)noc2C)cc1,EC50,[10],> 40 µM (inactive)
same,IC50,[11],35.5 µM (not active)
O=C1c2ccccc2C(=O)c2c1ncn2-c1ccccc1,AC50,[12],57.3 µM (active)
same,EC50,[13],15.6 µM (active)
same,AC50,[14],7.33 µM (active)
same,EC50,[15],9.51 µM (active)
same,EC50,[16],13.1 µM (active)
same,EC50,[17],229 µM (active)
Cc1ccccc1S(=O)(=O)N1[C@@H](c2ccc(Br)cc2)C(C(=O)O)=CC[C@H]1c1ccc(Cl)cc1,IC50,[18],6.72 µM (active)
same,IC50,[19],41.4 µM (active)
same,CC50,[20],> 40 µM (active)
same,IC50,[21],7.71 µM (active)
CN(C)c1ccc(C=C2C(=O)NC(=S)NC2=O)cc1,IC50,[6],> 25 µM (active)
same,CC50,[7],22.2 µM (active)
same,CC50,[20],31.4 µM (active)
CC1(C)Oc2ccc3ccc(=O)oc3c2C(/C=N/NC(N)=O)=C1O,EC50,[10],> 40 µM (inactive)
same,IC50,[11],> 40 µM (not active)
N=c1n(CC(=O)c2ccc(Br)cc2)c2ccccc2n1Cc1ccccc1,AC50,[14],6.41 µM (active)
same,IC50,[22],> 20 µM (inactive)
CCOc1ccc2nc(N)sc2c1,AC50,[23],28.2 µM (inconclusive)
c1ccc2c(c1)-c1cccc3cccc-2c13 [FLUORANTHENE],AC50,[23],12.6 µM (inconclusive)
CN1CCC(=C2c3ccccc3CC(=O)c3sccc32)CC1 [KETOTIFEN FUMARATE],AC50,[23],22.4 µM (inconclusive)
